Measurements taken from US8003660B2, “Modulators of muscarinic receptors” (Vertex Pharmaceuticals Incorporated, priority 2006, dated 2011).

Legend:
Type in all cases: cell-based
M1 muscarinic receptor = biological target: T1, M1 muscarinic receptor (Homo sapiens, UniProt P11229); test: Functional mobilization of intracellular calcium (FLIPR) in CHO cells expressing M1; details: for EC50: CHO cells expressing M1, FLIPR calcium; for Emax: CHO, 100% = maximum response obtained with the Carbachol control, read-out: M1 Efficacy
T1 construct: expressed in transfected cells; host or cells: CHO (M1-CHO)
T1 sequence (P11229 1-460): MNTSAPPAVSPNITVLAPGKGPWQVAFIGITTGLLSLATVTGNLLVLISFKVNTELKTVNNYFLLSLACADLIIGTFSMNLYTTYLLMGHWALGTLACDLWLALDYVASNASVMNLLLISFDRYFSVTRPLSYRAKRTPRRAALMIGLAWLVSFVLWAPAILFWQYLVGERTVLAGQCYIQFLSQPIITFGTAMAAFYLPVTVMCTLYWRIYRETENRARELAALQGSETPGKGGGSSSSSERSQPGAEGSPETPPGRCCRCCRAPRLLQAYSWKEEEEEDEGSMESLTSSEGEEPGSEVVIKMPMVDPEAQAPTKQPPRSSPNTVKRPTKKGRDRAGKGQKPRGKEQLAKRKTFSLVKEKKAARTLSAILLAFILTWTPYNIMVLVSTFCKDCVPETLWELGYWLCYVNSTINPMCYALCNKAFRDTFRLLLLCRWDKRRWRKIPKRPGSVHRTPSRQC
In short: (§1)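 Calcium flux is read on FLIPR over 60 sec at 488/540 nm in muscarinic-receptor CHO lines. Antagonist mode adds carbachol at EC80 after 15 min compound preincubation or with simultaneous co-application. Agonist mode adds compound alone. Cells carry Fluo-3 or Calcium 3 dye in probenecid-containing pH 7.4 buffer, 0.5% DMSO final.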

M2 muscarinic receptor = biological target: T2, M2 muscarinic receptor (Homo sapiens, UniProt P08172); test: Functional mobilization of intracellular calcium (FLIPR) in CHO cells expressing M2; details: for EC50: CHO cells expressing M2, FLIPR calcium; for Emax: CHO, 100% = maximum response obtained with the Carbachol control, read-out: M2 Efficacy
T2 construct: expressed in transfected cells; host or cells: CHO (M2-CHO)
T2 sequence (P08172 1-466): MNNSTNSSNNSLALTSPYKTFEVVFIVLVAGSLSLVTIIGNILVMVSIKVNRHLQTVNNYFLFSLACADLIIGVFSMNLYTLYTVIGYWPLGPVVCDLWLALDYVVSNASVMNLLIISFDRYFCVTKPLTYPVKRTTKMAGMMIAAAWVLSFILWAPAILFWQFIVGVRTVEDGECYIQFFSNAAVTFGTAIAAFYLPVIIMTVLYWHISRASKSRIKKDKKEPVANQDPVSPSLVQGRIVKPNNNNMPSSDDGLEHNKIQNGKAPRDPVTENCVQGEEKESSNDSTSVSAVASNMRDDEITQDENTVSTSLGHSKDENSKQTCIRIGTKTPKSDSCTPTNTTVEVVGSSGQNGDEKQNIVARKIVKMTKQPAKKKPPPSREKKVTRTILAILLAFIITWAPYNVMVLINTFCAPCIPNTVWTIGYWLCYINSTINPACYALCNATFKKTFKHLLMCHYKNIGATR
In short: as §1

M3 muscarinic receptor = biological target: T3, M3 muscarinic receptor (Homo sapiens, UniProt P20309); test: Functional mobilization of intracellular calcium (FLIPR) in CHO cells expressing M3; details: for EC50: CHO cells expressing M3, FLIPR calcium; for Emax: CHO, 100% = maximum response obtained with the Carbachol control, read-out: M3 Efficacy
T3 construct: expressed in transfected cells; host or cells: CHO (M3-CHO)
T3 sequence (P20309 whole entry): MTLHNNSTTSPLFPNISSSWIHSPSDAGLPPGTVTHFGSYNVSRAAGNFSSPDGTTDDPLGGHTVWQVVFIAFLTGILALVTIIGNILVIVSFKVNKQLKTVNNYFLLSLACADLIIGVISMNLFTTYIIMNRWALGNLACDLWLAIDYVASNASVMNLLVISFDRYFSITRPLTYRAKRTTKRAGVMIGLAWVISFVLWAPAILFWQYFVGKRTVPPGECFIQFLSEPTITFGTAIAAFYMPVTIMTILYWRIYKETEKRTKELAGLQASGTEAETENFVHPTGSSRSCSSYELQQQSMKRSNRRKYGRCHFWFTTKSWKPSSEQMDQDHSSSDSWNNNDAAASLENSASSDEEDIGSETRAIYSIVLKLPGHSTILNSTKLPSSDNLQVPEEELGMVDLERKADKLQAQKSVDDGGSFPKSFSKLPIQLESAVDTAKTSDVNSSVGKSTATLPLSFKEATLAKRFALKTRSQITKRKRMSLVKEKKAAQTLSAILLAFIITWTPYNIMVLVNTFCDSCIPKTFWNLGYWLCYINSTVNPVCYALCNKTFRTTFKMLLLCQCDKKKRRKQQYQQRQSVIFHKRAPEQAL
In short: as §1

M4 muscarinic receptor = biological target: T4, M4 muscarinic receptor (Homo sapiens, UniProt P08173); test: Functional mobilization of intracellular calcium (FLIPR) in CHO cells expressing M4; details: for EC50: CHO cells expressing M4, FLIPR calcium; for Emax: CHO, 100% = maximum response obtained with the Carbachol control, read-out: M4 Efficacy
T4 construct: expressed in transfected cells; host or cells: CHO (M4-CHO)
T4 sequence (P08173 1-479): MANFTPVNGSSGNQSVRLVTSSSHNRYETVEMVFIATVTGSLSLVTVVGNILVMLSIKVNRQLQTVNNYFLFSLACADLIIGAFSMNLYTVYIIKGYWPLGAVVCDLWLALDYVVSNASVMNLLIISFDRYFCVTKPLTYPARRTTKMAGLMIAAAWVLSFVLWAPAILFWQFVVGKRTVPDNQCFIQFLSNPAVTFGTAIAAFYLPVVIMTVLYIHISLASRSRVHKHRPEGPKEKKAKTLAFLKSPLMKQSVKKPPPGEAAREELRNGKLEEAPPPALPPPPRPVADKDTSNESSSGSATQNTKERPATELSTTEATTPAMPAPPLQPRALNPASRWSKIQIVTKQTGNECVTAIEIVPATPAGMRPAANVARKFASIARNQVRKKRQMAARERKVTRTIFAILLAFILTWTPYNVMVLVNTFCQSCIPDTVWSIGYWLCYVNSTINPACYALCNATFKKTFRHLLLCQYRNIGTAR
In short: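 Read-out: FLIPR fluorescence (ex 488, em 540 nm) over 60 s. Recombinant CHO lines are dye-loaded (Fluo-3 AM or Calcium 3) with 1 mM probenecid. For antagonist mode, compound is pre-incubated 15 min, or co-applied, then carbachol is added at 3× EC80 per subtype.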

SMILES	EC50 (M1 muscarinic receptor)	Emax (M1 muscarinic receptor)	EC50 (M2 muscarinic receptor)	Emax (M2 muscarinic receptor)	EC50 (M3 muscarinic receptor)	Emax (M3 muscarinic receptor)	EC50 (M4 muscarinic receptor)	Emax (M4 muscarinic receptor)
CC(=O)N1CCC[C@@H]1C(=O)N[C@@H]1CCC2(CCN(CCC(C)(C)C)CC2)c2ccccc21 [compound 107]	2 to 5 µM	25 to 100%	2 to 5 µM	< 25%	> 5 µM	< 25%	< 2 µM	25 to 100%
CC(C)(C)CCN1CCC2(CC[C@H](NC(=O)c3cccnc3)c3ccccc32)CC1 [compound 108]	< 2 µM	25 to 100%	< 2 µM	< 25%	> 5 µM	< 25%	< 2 µM	25 to 100%
C[C@H](C(=O)N[C@H]1CCC2(CCN(CCC(C)(C)C)CC2)c2ccccc21)N1CCCC1=O [compound 109]	< 2 µM	25 to 100%	> 5 µM	< 25%	> 5 µM	< 25%	< 2 µM	25 to 100%
CCN(C(=O)CCC(F)(F)F)[C@H]1CCC2(CCN(CCC(C)(C)C)CC2)c2ccccc21 [compound 110]	> 5 µM	25 to 100%	> 5 µM	< 25%	> 5 µM	< 25%	< 2 µM	25 to 100%
CCN(C(=O)c1cccnc1)[C@@H]1CCC2(CCN(CCC(C)(C)C)CC2)c2ccccc21 [compound 111]	> 5 µM	< 25%	> 5 µM	< 25%	> 5 µM	< 25%	< 2 µM	25 to 100%
C[C@H](C(=O)N[C@@H]1CCC2(CCN(CCC(C)(C)C)CC2)c2ccccc21)N1CCCCC1=O [compound 113]	> 5 µM	< 25%	> 5 µM	< 25%	> 5 µM	< 25%	< 2 µM	25 to 100%
CCn1cc(C(=O)N[C@H]2CCC3(CCN(CCC(C)(C)C)CC3)c3ccccc32)cn1 [compound 115]	< 2 µM	25 to 100%	< 2 µM	25 to 100%	> 5 µM	< 25%	< 2 µM	25 to 100%
CCN(C(=O)[C@@H](C)OC)[C@H]1CCC2(CCN(CCC(C)(C)C)CC2)c2ccccc21 [compound 116]	> 5 µM	25 to 100%	> 5 µM	< 25%	> 5 µM	< 25%	< 2 µM	25 to 100%
CC(C)(C)CCN1CCC2(CC1)CC(F)(F)C(=O)c1ccccc12 [compound 117]	< 2 µM	25 to 100%	< 2 µM	25 to 100%	> 5 µM	< 25%	< 2 µM	25 to 100%
Cn1cncc1C(=O)N[C@@H]1CCC2(CCN(CCC(C)(C)C)CC2)c2ccccc21 [compound 118]	2 to 5 µM	25 to 100%	> 5 µM	< 25%	> 5 µM	< 25%	< 2 µM	25 to 100%
CC(C)(C)CCN1CCC2(CC[C@H](NC(=O)C3CC3)c3ccc(F)cc32)CC1 [compound 119]	< 2 µM	25 to 100%	< 2 µM	25 to 100%	> 5 µM	< 25%	< 2 µM	25 to 100%
